Values quoted from earlier work as cited in US20250387497A1, “MULTIVALENT MULTISPECIFIC CONJUGATES AND RELATED COMPOSITIONS AND METHODS OF USE” (Purdue Research Foundation, priority 2022, published 2025).

Tests used:
Her2 = Her2 (Homo sapiens, UniProt P04626); settings: read-out: binding affinity for Her2
EGFR = EGFR (Homo sapiens, UniProt P00533); settings: read-out: binding affinity for EGFR

| Kd (Her2) [µM] | Kd (EGFR) [µM] | Sequence |
| --- | --- | --- |
| 0.3 |  | FCGDGFYACYMDV [H] |
|  | 459 | YHWYGYTPQNVI [E] |
